Measured values reported in patent publication US6008225A, “Derivatives of antibiotic GE2270 factors C2a, D2 and E” (BioSearch Italia, S.p.A., priority 1996, dated 1999).

Columns and labels:
[1] = system: Staph. haemolyticus clin. is.; assay: MIC by microbroth dilution, Staph. haemolyticus; type: cell-based, Staphylococcus haemolyticus; details: Staph. haemolyticus clin. is. (code 602); 0.01% BSA; inocula about 10^4 (1-4), about 5×10^5 cfu/ml (5, 6); 18-24 h
Staph. aureus Smith = assay: MIC by microbroth dilution, Staph. aureus Smith; type: cell-based, Staphylococcus aureus; details: Staph. aureus Smith (code 819); 0.01% BSA; inocula about 10^4 (1-4), about 5×10^5 cfu/ml (5, 6); 18-24 h
[2] = system: Clostridium perfringens ISS30543; type: cell-based; details: Clostridium perfringens ISS30543 (code 290); anaerobe, 48 h; 0.01% BSA; inocula about 10^5 (1-4), about 5×10^5 cfu/ml (5, 6)
[3] = system: Proteus vulgaris X19H ATCC881; assay: MIC by microbroth dilution, Proteus vulgaris; type: cell-based; details: Proteus vulgaris X19H ATCC881 (code 79); 0.01% BSA; inocula about 10^4 (1-4), about 5×10^5 cfu/ml (5, 6); 18-24 h
[4] = system: Haemophilus influenzae type b ATCC19418; assay: MIC by microbroth dilution, Haemophilus influenzae; type: cell-based; details: Haemophilus influenzae type b ATCC19418 (code 970); 5% CO2, 48 h; 0.01% BSA; inocula about 10^4 (1-4), about 5×10^5 cfu/ml (5, 6)
[5] = system: Escherichia coli SKF 12140; assay: MIC by microbroth dilution, Escherichia coli; type: cell-based; details: Escherichia coli SKF 12140 (code 47); 0.01% BSA; inocula about 10^4 (1-4), about 5×10^5 cfu/ml (5, 6); 18-24 h
[6] = system: Neisseria gonorrhoeae ISM 68/126; assay: MIC by microbroth dilution, Neisseria gonorrhoeae; type: cell-based; details: Neisseria gonorrhoeae ISM 68/126 (code 997); 5% CO2, 48 h; 0.01% BSA; inocula about 10^4 (1-4), about 5×10^5 cfu/ml (5, 6)
Strep. pyogenes C203 = assay: MIC by microbroth dilution, Strep. pyogenes; type: cell-based, Streptococcus pyogenes; details: Strep. pyogenes C203 (code 49); Todd Hewitt broth; 0.01% BSA; inocula about 10^4 (1-4), about 5×10^5 cfu/ml (5, 6); 18-24 h
[7] = system: Pseudomonas aeruginosa ATCC10145; assay: MIC by microbroth dilution, Pseudomonas aeruginosa; type: cell-based; details: Pseudomonas aeruginosa ATCC10145 (code 4); 0.01% BSA; inocula about 10^4 (1-4), about 5×10^5 cfu/ml (5, 6); 18-24 h
[8] = system: Propionibacterium acnes ATCC6919; assay: MIC by microbroth dilution, Propionibacterium acnes; type: cell-based; details: Propionibacterium acnes ATCC6919 (code 1014); anaerobe, 48 h; 0.01% BSA; inocula about 10^5 (1-4), about 5×10^5 cfu/ml (5, 6)
Staph. aureus Tour = assay: MIC by microbroth dilution, Staph. aureus Tour; type: cell-based, Staphylococcus aureus; details: Staph. aureus Tour (code 165), 0.01% BSA, read 18-24 h
[9] = system: Klebsiella pneumoniae ISM; assay: MIC by microbroth dilution, Klebsiella pneumoniae; type: cell-based; details: Klebsiella pneumoniae ISM (code 142); 0.01% BSA; inocula about 10^4 (1-4), about 5×10^5 cfu/ml (6); 18-24 h
[10] = system: Bacteroides fragilis ATCC 25285; assay: MIC by microbroth dilution, Bacteroides fragilis; type: cell-based; details: Bacteroides fragilis ATCC 25285 (code 1011); anaerobe, 48 h; 0.01% BSA; inocula about 10^5 (1-4), about 5×10^5 cfu/ml (5, 6)
[11] = system: Enterococcus faecalis ATCC 6919; assay: MIC by microbroth dilution, Enterococcus faecalis; type: cell-based; details: Enterococcus faecalis ATCC 6919 (code 149); 0.01% BSA; inocula about 10^4 (1-4), about 5×10^5 cfu/ml (5, 6); 18-24 h
Strep. pneumoniae UC41 = assay: MIC by microbroth dilution, Strep. pneumoniae; type: cell-based, Streptococcus pneumoniae; details: Strep. pneumoniae UC41 (code 44); Todd Hewitt broth; 0.01% BSA; inocula about 10^4 (1-4), about 5×10^5 cfu/ml (5, 6); 18-24 h
[12] = system: Staph. epidermidis ATCC 12228; assay: MIC by microbroth dilution, Staph. epidermidis; type: cell-based, Staphylococcus epidermidis; details: Staph. epidermidis ATCC 12228 (code 147); 0.01% BSA; inocula about 10^4 (1-4), about 5×10^5 cfu/ml (5, 6); 18-24 h
[13] = inocula about 10^4 cfu/ml (compounds 1-4), about 5×10^5 cfu/ml (5, 6)

Row | SMILES | MIC of the compounds [1] [µg/mL] | MIC of the compounds (Staph. aureus Smith) [µg/mL] | MIC of the compounds [2] [µg/mL] | MIC of the compounds [3] [µg/mL] | MIC of the compounds [4] [µg/mL] | MIC of the compounds [5] [µg/mL] | MIC of the compounds [6] [µg/mL] | MIC of the compounds (Strep. pyogenes C203) [µg/mL] | MIC of the compounds [7] [µg/mL] | MIC of the compounds [8] [µg/mL] | MIC of the compounds (Staph. aureus Tour; 10^6 cfu/ml) [µg/mL] | MIC of the compounds (Staph. aureus Tour; 30% b.s.) [µg/mL] | MIC of the compounds (Staph. aureus Tour; [13]) [µg/mL] | MIC of the compounds [9] [µg/mL] | MIC of the compounds [10] [µg/mL] | MIC of the compounds [11] [µg/mL] | MIC of the compounds (Strep. pneumoniae UC41) [µg/mL] | MIC of the compounds [12] [µg/mL]
1 | CCN(CC)Cc1sc2nc1C(=O)NCC(=O)NC(C(O)c1ccccc1)c1nc(cs1)-c1nc(cs1)-c1nc(-c3nc(C4=NC(C(=O)N5CCCC5C(N)=O)CO4)cs3)ccc1-c1nc(cs1)C(=O)NC(CC(=O)NC)c1nc(c(C)s1)C(=O)NC2C(C)C (stereo not drawn) [Compound 1] | 0.13 | 0.13 | 0.13 | > 128 | > 128 | > 128 | > 128 | 4 | > 128 | 0.03 | 0.25 | 0.5 | 0.13 | > 128 | 64 | 0.06 | 1 | –
2 | CNC(=O)CC1NC(=O)c2csc(n2)-c2ccc(-c3nc(C4=NC(C(=O)N5CCCC5C(N)=O)CO4)cs3)nc2-c2csc(n2)-c2csc(n2)C(C(O)c2ccccc2)NC(=O)CNC(=O)c2nc(sc2CN(C)C)C(C(C)C)NC(=O)c2nc1sc2C (stereo not drawn) [Compound 2] | 0.25 | 0.13 | 0.06 | > 128 | 8 | > 128 | 4 | 0.5 | > 128 | 0.06 | 0.13 | 0.13 | 0.13 | > 128 | 128 | 0.06 | 0.13 | 0.13
3 | CNC(=O)C[C@@H]1NC(=O)c2csc(n2)-c2ccc(-c3nc(C4=N[C@H](C(=O)N5CCC[C@H]5C(N)=O)CO4)cs3)nc2-c2csc(n2)-c2csc(n2)C(C(O)c2ccccc2)NC(=O)CNC(=O)c2nc(sc2CN(C)CCN(C)C)[C@H](C(C)C)NC(=O)c2nc1sc2C (stereo partly drawn) [Compound 3] | 8 | 1 | 4 | > 128 | > 128 | > 128 | > 128 | 2 | > 128 | 0.5 | 4 | 1 | 1 | > 128 | > 128 | 1 | 1 | 8
4 | CCSCc1sc2nc1C(=O)NCC(=O)NC(C(O)c1ccccc1)c1nc(cs1)-c1nc(cs1)-c1nc(-c3nc(C4=N[C@H](C(=O)N5CCC[C@H]5C(N)=O)CO4)cs3)ccc1-c1nc(cs1)C(=O)N[C@@H](CC(=O)NC)c1nc(c(C)s1)C(=O)N[C@H]2C(C)C (stereo partly drawn) [Compound 4] | 8 | 0.25 | 0.016 | > 128 | > 128 | > 128 | > 128 | 64 | > 128 | 0.004 | – | – | 0.13 | > 128 | > 128 | 0.06 | 0.5 | 4
5 | CCN(CC)CCNC(=O)[C@@H]1CCCN1C(=O)[C@@H]1COC(c2csc(-c3ccc4c(n3)-c3csc(n3)-c3csc(n3)C(C(O)c3ccccc3)NC(=O)CNC(=O)c3nc(sc3CO)[C@H](C(C)C)NC(=O)c3nc(sc3C)[C@H](CC(=O)NC)NC(=O)c3csc-4n3)n2)=N1 (stereo partly drawn) [Compound 5] | 0.13 | 0.13 | 0.06 | > 128 | 8 | > 128 | 32 | 0.13 | > 128 | 0.03 | 0.13 | 0.25 | 0.06 | – | 32 | 0.06 | 0.13 | 0.13
6 | CCN(CC)CCNC(=O)[C@@H]1CCCN1C(=O)[C@@H]1COC(c2csc(-c3ccc4c(n3)-c3csc(n3)-c3csc(n3)C(C(O)c3ccccc3)NC(=O)CNC(=O)c3nc(sc3CN(C)C)[C@H](C(C)C)NC(=O)c3nc(sc3C)[C@H](CC(=O)NC)NC(=O)c3csc-4n3)n2)=N1 (stereo partly drawn) [Compound 6] | 0.5 | 0.13 | 0.06 | > 128 | > 128 | > 128 | 16 | 0.13 | > 128 | 16 | – | – | 0.13 | > 128 | 64 | 0.13 | 0.13 | 0.5
